Values belong to the compound of their own block, whether it stands above or below them.
Experiments:
P. falciparum = experiment: EC50 listed in S2 Table Metabolomics (used to set the concentration tested); type: cell-based; conditions: Plasmodium falciparum; EC50 used for Factor_XEC50 in metabolomics; read-out: EC50_nM
[1] = tested on: P. falciparum 3D7 trophozoites; experiment: Metabolomic fingerprint profiling LC-MS; type: cell-based, Plasmodium falciparum; design: UDP-D-glucose / ADP-D-glucose: unit not given here; conditions: for Acetyllysine / N-acetyl-L-ornithine / N-carbamoyl-L-aspartate / NADPH / dAMP / dCMP / dTDP / dTMP / dTTP / dihydroorotate / orotate / DLH / DLS/SDL/SID / PD / PEE / PVNF / 3-phosphoglycerate / ADP-D-glucose / ATP / CDP / D-sedoheptulose-1/7-phosphate / FAD / GMP / NAD+ / NADP+ / Octoluse Bisphosphate / Pyroglutamic acid / UDP-D-glucose / UDP-D-glucuronate / UDP-N-acetyl-glucosamine / UDP / UMP / UTP / a-ketoglutarate / citrate/isocitrate / cytidine / dATP / dGMP/AMP / fumarate / glucose-1/6-phosphate / glycerate / guanine / guanosine / hypoxanthine / indole / inosine / nicotinate / ornithine / phosphoenolpyruvate / pyruvate / ribose-phosphate / sarcosine/alanine / sn-glycerol-3-phosphate / succinate/methylmalonic acid / uridine / xanthosine: S2 Table Metabolomics; for Acetyllysine: metabolite Acetyllysine; for N-acetyl-L-ornithine: metabolite N-acetyl-L-ornithine; for N-carbamoyl-L-aspartate: metabolite N-carbamoyl-L-aspartate; for NADPH: metabolite NADPH; for dAMP: metabolite dAMP; for dCMP: metabolite dCMP; for dTDP: metabolite dTDP; for dTMP: metabolite dTMP; for dTTP: metabolite dTTP; for dihydroorotate: metabolite dihydroorotate; for orotate: metabolite orotate; for DLH: peptide DLH; for DLS/SDL/SID: peptide DLS/SDL/SID; for PD: peptide PD; for PEE: peptide PEE; for PVNF: peptide PVNF; for 3-phosphoglycerate: metabolite 3-phosphoglycerate; for ADP-D-glucose: metabolite ADP-D-glucose; for ATP: metabolite ATP; for CDP: metabolite CDP; for CDP / D-sedoheptulose-1/7-phosphate / GMP / Octoluse Bisphosphate / UDP / UMP / UTP / citrate/isocitrate / dGMP/AMP / fumarate / glucose-1/6-phosphate / glycerate / guanine / guanosine / inosine / pyruvate / sarcosine/alanine / succinate/methylmalonic acid / uridine / xanthosine: change in metabolite level after compound treatment; for D-sedoheptulose-1/7-phosphate: metabolite D-sedoheptulose-1/7-phosphate; for FAD: metabolite FAD; for GMP: metabolite GMP; for NAD+: metabolite NAD+; for NADP+: metabolite NADP+; for Octoluse Bisphosphate: metabolite Octoluse Bisphosphate; for Pyroglutamic acid: metabolite Pyroglutamic acid; for UDP-D-glucose: metabolite UDP-D-glucose; for UDP-D-glucuronate: metabolite UDP-D-glucuronate; for UDP-N-acetyl-glucosamine: metabolite UDP-N-acetyl-glucosamine; for UDP: metabolite UDP; for UMP: metabolite UMP; for UTP: metabolite UTP; for a-ketoglutarate: metabolite a-ketoglutarate; for citrate/isocitrate: metabolite citrate/isocitrate; for cytidine: metabolite cytidine; for dATP: metabolite dATP; for dGMP/AMP: metabolite dGMP/AMP; for fumarate: metabolite fumarate; for glucose-1/6-phosphate: metabolite glucose-1/6-phosphate; for glycerate: metabolite glycerate; for guanine: metabolite guanine; for guanosine: metabolite guanosine; for hypoxanthine: metabolite hypoxanthine; for indole: metabolite indole; for inosine: metabolite inosine; for 2_3-Diphosphoglyceric acid / 4-phosphopantothenate / 6-phospho-D-gluconate / FMN / IMP / Pyrophosphate / Sedoheptoluse bisphosphate / cyclic-AMP / glutathione disulfide / lactate / myo-inositol: metabolite level change after treatment; for nicotinate: metabolite nicotinate; for ornithine: metabolite ornithine; for phosphoenolpyruvate: metabolite phosphoenolpyruvate; for pyruvate: metabolite pyruvate; for ribose-phosphate: metabolite ribose-phosphate; for sarcosine/alanine: metabolite sarcosine/alanine; for sn-glycerol-3-phosphate: metabolite sn-glycerol-3-phosphate; for succinate/methylmalonic acid: metabolite succinate/methylmalonic acid; for uridine: metabolite uridine; for xanthosine: metabolite xanthosine

EC50 (P. falciparum): 20.2 nM
SMILES: COc1ccc(NC(=O)C2c3ccccc3C(=O)N(CC(C)C)C2c2cccs2)cc1Cl (stereo not drawn) [MMV000642]
Acetyllysine [1]: -5.193
N-acetyl-L-ornithine [1]: -3.747
N-carbamoyl-L-aspartate [1]: -2.41
NADPH [1]: -0.3813
dAMP [1]: 2.141
dCMP [1]: 1.187
dTDP [1]: 1.699
dTMP [1]: 3.58
dTTP [1]: 1.5
dihydroorotate [1]: -2.555
orotate [1]: -0.348
DLH [1]: -5.968
DLS/SDL/SID [1]: -3.9977
PD [1]: -2.5956
PEE [1]: -3.5386
PVNF [1]: -6.505
3-phosphoglycerate [1]: -0.2719
ADP-D-glucose [1]: -0.1906
ATP [1]: -1.554
CDP [1]: -0.7723
D-sedoheptulose-1/7-phosphate [1]: -1.211
FAD [1]: -1.709
GMP [1]: -1.9066
NAD+ [1]: -0.5171
NADP+ [1]: -0.1638
Octoluse Bisphosphate [1]: -2.57
Pyroglutamic acid [1]: 0.06474
UDP-D-glucose [1]: -0.2074
UDP-D-glucuronate [1]: -0.1541
UDP-N-acetyl-glucosamine [1]: -0.04904
UDP [1]: -1.27
UMP [1]: -0.4497
UTP [1]: -1.308
a-ketoglutarate [1]: -0.0007361
citrate/isocitrate [1]: -0.3751
cytidine [1]: 0.1777
dATP [1]: 0.01445
dGMP/AMP [1]: -0.6011
fumarate [1]: -0.3143
glucose-1/6-phosphate [1]: -1.542
glycerate [1]: -0.9599
guanine [1]: 0.2177
guanosine [1]: 0.8357
hypoxanthine [1]: -0.2894
indole [1]: -0.1989
inosine [1]: 0.04742
2_3-Diphosphoglyceric acid [1]: -1.07
4-phosphopantothenate [1]: -0.7331
6-phospho-D-gluconate [1]: -0.5035
FMN [1]: -0.2051
IMP [1]: -0.1621
Pyrophosphate [1]: -1.141
Sedoheptoluse bisphosphate [1]: -1.388
cyclic-AMP [1]: -0.8649
glutathione disulfide [1]: -0.7288
lactate [1]: -1.097
myo-inositol [1]: -1.4412
nicotinate [1]: 0.5786
ornithine [1]: 0.1669
phosphoenolpyruvate [1]: 0.08762
pyruvate [1]: -0.8949
ribose-phosphate [1]: -0.3617
sarcosine/alanine [1]: -1.783
sn-glycerol-3-phosphate [1]: 1.156
succinate/methylmalonic acid [1]: 0.05807
uridine [1]: 1.2
xanthosine [1]: -1.585

EC50 (P. falciparum): 237 nM
SMILES: CCCCCC(=O)N1c2ccccc2N=C2CC(c3ccc(OC)c(OC)c3)CC(O)=C2C1c1ccc(C(F)(F)F)cc1 (stereo not drawn) [MMV085583]
Acetyllysine [1]: -3.233
N-acetyl-L-ornithine [1]: -2.906
N-carbamoyl-L-aspartate [1]: -0.5597
NADPH [1]: 1.284
dAMP [1]: 0.2596
dCMP [1]: -0.4552
dTDP [1]: -0.3582
dTMP [1]: -0.9265
dTTP [1]: 0.1067
dihydroorotate [1]: -0.6697
orotate [1]: -1.058
DLH [1]: -2.5
DLS/SDL/SID [1]: -2.559
PD [1]: -2.735
PEE [1]: -2.9857
PVNF [1]: -3.329
3-phosphoglycerate [1]: 0.3606
ADP-D-glucose [1]: -0.0158
ATP [1]: -0.07202
CDP [1]: -0.3911
D-sedoheptulose-1/7-phosphate [1]: -0.5433
FAD [1]: -0.3185
GMP [1]: -0.4734
NAD+ [1]: -0.2717
NADP+ [1]: 0.1968
Octoluse Bisphosphate [1]: -0.2833
Pyroglutamic acid [1]: -0.1555
UDP-D-glucose [1]: -0.1587
UDP-D-glucuronate [1]: -0.1055
UDP-N-acetyl-glucosamine [1]: -0.2414
UDP [1]: -0.8399
UMP [1]: -0.6631
UTP [1]: -0.1073
a-ketoglutarate [1]: -0.8202
citrate/isocitrate [1]: -0.2512
cytidine [1]: -0.09635
dATP [1]: 0.2253
dGMP/AMP [1]: -0.1442
fumarate [1]: -0.4715
glucose-1/6-phosphate [1]: -0.3133
glycerate [1]: -0.7263
guanine [1]: -0.4303
guanosine [1]: -0.4531
hypoxanthine [1]: -0.4709
indole [1]: -0.4645
inosine [1]: -0.4523
2_3-Diphosphoglyceric acid [1]: 0.1524
4-phosphopantothenate [1]: -0.4091
6-phospho-D-gluconate [1]: -0.01182
FMN [1]: -0.2086
IMP [1]: -0.3529
Pyrophosphate [1]: 0.1499
Sedoheptoluse bisphosphate [1]: 0.0221
cyclic-AMP [1]: -0.3292
glutathione disulfide [1]: -0.6201
lactate [1]: -0.8724
myo-inositol [1]: -1.425
nicotinate [1]: 0.07742
ornithine [1]: 0.02649
phosphoenolpyruvate [1]: 0.334
pyruvate [1]: -0.3941
ribose-phosphate [1]: -0.07903
sarcosine/alanine [1]: -0.9167
sn-glycerol-3-phosphate [1]: 0.1681
succinate/methylmalonic acid [1]: -0.405
uridine [1]: -0.7297
xanthosine [1]: 0.125

EC50 (P. falciparum): 293 nM
SMILES: OC(CNC1CCCCC1)Cn1c2ccccc2c2ccccc21 (stereo not drawn) [MMV009063]
Acetyllysine [1]: -0.9697
N-acetyl-L-ornithine [1]: -0.4154
N-carbamoyl-L-aspartate [1]: -0.3154
NADPH [1]: 0.37
dAMP [1]: 0.9178
dCMP [1]: 4.938
dTDP [1]: 0.7098
dTMP [1]: 0.6703
dTTP [1]: 1.896
dihydroorotate [1]: -0.3265
orotate [1]: -0.5164
DLH [1]: -0.8674
DLS/SDL/SID [1]: -0.2423
PD [1]: -0.8841
PEE [1]: -0.7244
PVNF [1]: -0.6115
3-phosphoglycerate [1]: 0.9312
ADP-D-glucose [1]: 0.2307
ATP [1]: 0.3671
CDP [1]: 0.5148
D-sedoheptulose-1/7-phosphate [1]: -0.5559
FAD [1]: 0.5708
GMP [1]: 0.12
NAD+ [1]: -0.1605
NADP+ [1]: 0.3102
Octoluse Bisphosphate [1]: 0.2421
Pyroglutamic acid [1]: 0.1616
UDP-D-glucose [1]: 0.2936
UDP-D-glucuronate [1]: 0.2553
UDP-N-acetyl-glucosamine [1]: 0.3811
UDP [1]: 0.491
UMP [1]: 0.4628
UTP [1]: 0.409
a-ketoglutarate [1]: -0.1494
citrate/isocitrate [1]: 0.2484
cytidine [1]: 0.7064
dATP [1]: 0.1129
dGMP/AMP [1]: 0.3842
fumarate [1]: -0.3431
glucose-1/6-phosphate [1]: 1.039
glycerate [1]: 0.4301
guanine [1]: 0.4492
guanosine [1]: 0.3938
hypoxanthine [1]: 0.2685
indole [1]: -0.01895
inosine [1]: 0.305
2_3-Diphosphoglyceric acid [1]: 0.9003
4-phosphopantothenate [1]: 0.6116
6-phospho-D-gluconate [1]: 0.5165
FMN [1]: 0.5888
IMP [1]: 0.4443
Pyrophosphate [1]: -0.0661
Sedoheptoluse bisphosphate [1]: 0.4491
cyclic-AMP [1]: 0.4153
glutathione disulfide [1]: 0.4569
lactate [1]: 0.8013
myo-inositol [1]: 0.939
nicotinate [1]: 0.31
ornithine [1]: 0.3762
phosphoenolpyruvate [1]: 0.7676
pyruvate [1]: 0.735
ribose-phosphate [1]: 0.3548
sarcosine/alanine [1]: -0.09066
sn-glycerol-3-phosphate [1]: 0.5324
succinate/methylmalonic acid [1]: -0.07148
uridine [1]: 0.5909
xanthosine [1]: -0.08621

Reference: paper PMC4965013, “Open Source Drug Discovery with the Malaria Box Compound Collection for Neglected Diseases and Beyond” (PLoS Pathogens, 2016)
